In brackets after ≈: the same amount, converted by molar mass. Where two headings read alike, the source gives them in different places.
Key:
E. coli TrxR = E. coli TrxR (Escherichia coli, UniProt P0A9P4); assay: E. coli TrxR inhibition, thioredoxin dependent DTNB reduction assay; format: biochemical
Method: Further we examined the effect of ebselen in the reduction of disulfide by E. coli Trx and TrxR using both DTNB and insulin as substrates.
All the benzisoselenazol-3(2H)-one and bisbenzisoselenazol-3(2H)-one derivatives were tested as potential E. coli TrxR inhibitors by standard DTNB assay. […] The reactions were started by adding 1 mM DTNB to the mixture of 100 nM TrxR, 2 μM Trx, 240 μM NADPH, and different concentration of inhibitor (1-40 μM). […] The reactions were started by adding 6 nM TrxR at room temperature. Inhibition constants (Ki) for all the compounds were measured from Dixon plot, which plots 1/v versus […], I=Inhibitor concentration).

[1] = Glutathione peroxidase (GPx) activity of the compounds; format: biochemical; details: for Relative GPx activity: EbSe 6 = 1
HEK 293T cells = HEK 293T cells growth (cytotoxicity); format: cell-based
recombinant rat TrxR = target: T1, recombinant rat TrxR (Rattus norvegicus, UniProt O89049); assay: Inhibition of mammalian (recombinant rat) TrxR
T1 sequence (O89049 1-499): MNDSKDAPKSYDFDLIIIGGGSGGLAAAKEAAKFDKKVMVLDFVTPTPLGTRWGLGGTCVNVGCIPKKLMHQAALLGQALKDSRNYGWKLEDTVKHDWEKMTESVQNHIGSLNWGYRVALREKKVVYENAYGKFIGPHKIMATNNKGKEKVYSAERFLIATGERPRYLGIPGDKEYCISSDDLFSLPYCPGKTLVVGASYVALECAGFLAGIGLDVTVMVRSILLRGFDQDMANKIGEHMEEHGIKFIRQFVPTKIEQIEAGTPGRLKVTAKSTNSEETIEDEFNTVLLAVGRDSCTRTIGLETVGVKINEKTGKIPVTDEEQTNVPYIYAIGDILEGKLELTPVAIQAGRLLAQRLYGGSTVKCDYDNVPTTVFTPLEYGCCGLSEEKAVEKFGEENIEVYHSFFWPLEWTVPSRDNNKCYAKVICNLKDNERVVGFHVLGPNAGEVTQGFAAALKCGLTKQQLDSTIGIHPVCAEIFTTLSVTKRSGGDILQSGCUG

Gor DHB4 E. coli = assay: Inhibition of bacterial growth (MIC), Gor DHB4 E. coli; details: for MIC: Escherichia coli, DHB4E.COLI, read-out: MIC for Gor DHB4 E. coli
Description: (§1) Here E. coli DHB4 strains wt, gshA^−, gor^−, oxyR^− were used as the model to test the antibiotics activity of these ebselen derivatives.

gshA^− DHB4 E. coli = assay: Inhibition of bacterial growth (MIC), gshA^− DHB4 E. coli; details: for MIC: Escherichia coli, read-out: MIC for gshA^− DHB4 E. coli; for sensitivity of gshA^− / gor^− strains compared with wild type: E. coli strains wt
Description: as §1

wild type DHB4 E. coli = assay: Inhibition of bacterial growth (MIC), wild type DHB4 E. coli; details: for MIC: Escherichia coli, DHB4E.COLI, read-out: MIC for wild type DHB4 E. coli
Description: as §1

[2] = DTNB assay, 100 nM TrxR, 2 μM Trx, 240 μM NADPH, 1 mM DTNB, read-out: IC50 for E. coli TrxR
[3] = Dixon plot, 6 nM TrxR, Trx 1, 2 or 4 μM, read-out: Ki for E. coli TrxR
[4] = Dixon plot, 6 nM TrxR, Trx 1, 2 or 4 μM
[5] = Homo sapiens, HEK-293T; read-out: IG50 for HEK 293T
[6] = Homo sapiens, HEK-293T, read-out: IG50 for HEK 293T

Chain of E. coli TrxR (P0A9P4 whole entry): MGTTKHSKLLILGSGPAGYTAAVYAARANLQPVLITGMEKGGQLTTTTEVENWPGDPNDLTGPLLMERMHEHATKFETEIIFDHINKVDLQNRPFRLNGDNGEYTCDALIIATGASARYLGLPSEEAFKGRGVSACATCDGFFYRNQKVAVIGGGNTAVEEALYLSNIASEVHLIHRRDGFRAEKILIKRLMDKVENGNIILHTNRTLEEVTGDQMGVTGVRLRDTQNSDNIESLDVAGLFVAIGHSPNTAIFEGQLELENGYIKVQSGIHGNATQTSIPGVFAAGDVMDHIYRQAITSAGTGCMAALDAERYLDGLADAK

SMILES: NCCn1[se]c2ccccc2c1=O [EbSe5]
- IC50 (E. coli TrxR; [2]): 2.12 µM
- Ki (E. coli TrxR; [3]): 0.035 µM

SMILES: O=c1c2cccnc2[se]n1-c1ccc(Cl)cc1 [EbSe19]
- IC50 (E. coli TrxR; [2]): 3 µM
- Ki (E. coli TrxR; [3]): 0.5 µM

SMILES: O=c1[nH][se]c2ccccc12 [EbSe 2]
- IC50 (E. coli TrxR; [2]): 15 µM
- Ki for E. coli TrxR (E. coli TrxR; [4]): Not detected
- Ki (E. coli TrxR; [3]): 1 µM
- Relative GPx activity [1]: 0.97
- IC50 (HEK 293T cells; [5]): 95 µM
- IC50 (recombinant rat TrxR): > 10 µM

SMILES: Cn1[se]c2ccccc2c1=O [EbSe 3]
- IC50 (E. coli TrxR; [2]): 15 µM
- Ki for E. coli TrxR (E. coli TrxR; [4]): Not detected
- Relative GPx activity [1]: 1.2
- IC50 (HEK 293T cells; [5]): 100 µM
- IC50 (recombinant rat TrxR): > 10 µM

SMILES: CC(C)(C)n1[se]c2ccccc2c1=O [EbSe 4]
- IC50 (E. coli TrxR; [2]): 15 µM
- Ki for E. coli TrxR (E. coli TrxR; [4]): Not detected
- Relative GPx activity [1]: 1.1
- IC50 (HEK 293T cells; [5]): 75 µM
- IC50 (recombinant rat TrxR): > 10 µM
- inhibition of mammalian TrxR (in words) (recombinant rat TrxR): some activity

SMILES: O=c1c2ccccc2[se]n1-c1ccc(Cl)cc1 [EbSe 7]
- IC50 (E. coli TrxR; [2]): 7 µM
- Ki (E. coli TrxR; [3]): 0.55 µM
- Relative GPx activity [1]: 0.64
- IC50 (HEK 293T cells; [5]): 120 µM
- IC50 (recombinant rat TrxR): > 10 µM
- MIC (Gor DHB4 E. coli): 23 µM (≈ 7.1 µg/mL)
- MIC (gshA^− DHB4 E. coli): 20 µM (≈ 6.17 µg/mL)
- MIC (wild type DHB4 E. coli): 34 µM (≈ 10.5 µg/mL)

SMILES: Cc1cc(Cl)ccc1-n1[se]c2ccccc2c1=O [EbSe 8]
- IC50 (E. coli TrxR; [2]): 6 µM
- Ki (E. coli TrxR; [3]): 0.25 µM
- Relative GPx activity [1]: 0.67
- IC50 (HEK 293T cells; [5]): 80 µM
- IC50 (recombinant rat TrxR): > 10 µM
- MIC (Gor DHB4 E. coli): 24 µM (≈ 7.74 µg/mL)
- MIC (gshA^− DHB4 E. coli): 13 µM (≈ 4.19 µg/mL)
- MIC (wild type DHB4 E. coli): 47 µM (≈ 15.2 µg/mL)

SMILES: O=C(O)c1ccccc1-n1[se]c2ccccc2c1=O [EbSe 9]
- IC50 (E. coli TrxR; [2]): 7.5 µM
- Ki (E. coli TrxR; [3]): 1.2 µM
- Relative GPx activity [1]: 2.1
- IC50 (HEK 293T cells; [5]): > 160 µM
- IC50 (recombinant rat TrxR): 0.8 µM
- MIC (Gor DHB4 E. coli): 31 µM (≈ 9.86 µg/mL)
- MIC (gshA^− DHB4 E. coli): 24 µM (≈ 7.64 µg/mL)
- MIC (wild type DHB4 E. coli): 49 µM (≈ 15.6 µg/mL)

SMILES: O=C(O)c1ccc(-n2[se]c3ccccc3c2=O)cc1 [EbSe 10]
- IC50 (E. coli TrxR; [2]): 15 µM
- Ki for E. coli TrxR (E. coli TrxR; [4]): Not detected
- Relative GPx activity [1]: 1.8
- IC50 (HEK 293T cells; [5]): 55 µM
- IC50 (recombinant rat TrxR): > 10 µM

SMILES: O=c1c2ccccc2[se]n1-c1ccc(Cl)cc1 [EbSe 11]
- IC50 (E. coli TrxR): > 40 µM
- Ki (E. coli TrxR): 0.3 µM
- Ki for E. coli TrxR (E. coli TrxR; [4]): Not detected
- Relative GPx activity [1]: 0.87
- IC50 (HEK 293T cells; read-out: IG50 for HEK 293T): > 160 µM
- MIC for Gor DHB4 E. coli (Gor DHB4 E. coli): No Inhibition
- MIC for gshA^− DHB4 E. coli (gshA^− DHB4 E. coli): No Inhibition
- MIC for wild type DHB4 E. coli (wild type DHB4 E. coli): No Inhibition

SMILES: O=c1c2ccccc2[se]n1-c1ccccc1[N+](=O)[O-] [EbSe 12]
- IC50 (E. coli TrxR; [2]): 3 µM
- Ki (E. coli TrxR; [3]): 0.25 µM
- GPx activity (in words) [1]: no GPx activity
- Relative GPx activity [1]: 0.93
- IC50 (HEK 293T cells; [6]): 80 µM
- IC50 (recombinant rat TrxR): > 10 µM
- MIC for Gor DHB4 E. coli (Gor DHB4 E. coli): No Inhibition
- MIC for gshA^− DHB4 E. coli (gshA^− DHB4 E. coli): No Inhibition
- sensitivity of gshA^− / gor^− strains compared with wild type (gshA^− DHB4 E. coli): same sensitivity
- MIC for wild type DHB4 E. coli (wild type DHB4 E. coli): No Inhibition

SMILES: O=c1c2ccccc2[se]n1-c1ccncc1 [EbSe 13]
- IC50 (E. coli TrxR; [2]): 3 µM
- Ki (E. coli TrxR; [3]): 1.5 µM
- Relative GPx activity [1]: 1.4
- IC50 (HEK 293T cells; [5]): 60 µM
- IC50 (recombinant rat TrxR): > 10 µM
- MIC (Gor DHB4 E. coli): 24 µM (≈ 6.6 µg/mL)
- MIC (gshA^− DHB4 E. coli): 21 µM (≈ 5.78 µg/mL)
- MIC (wild type DHB4 E. coli): 45 µM (≈ 12.4 µg/mL)

SMILES: O=c1c2ccccc2[se]n1CCn1[se]c2ccccc2c1=O [EbSe 14]
- IC50 (E. coli TrxR; [2]): 2 µM
- Ki (E. coli TrxR; [3]): 0.05 µM
- MIC (Gor DHB4 E. coli): 19 µM (≈ 8.02 µg/mL)
- sensitivity of gshA^− / gor^− strains compared with wild type (gshA^− DHB4 E. coli): same sensitivity
- MIC (gshA^− DHB4 E. coli): 23 µM (≈ 9.71 µg/mL)
- MIC (wild type DHB4 E. coli): 23 µM (≈ 9.71 µg/mL)

SMILES: O=c1c2ccccc2[se]n1CCCn1[se]c2ccccc2c1=O [EbSe 15]
- Ki (E. coli TrxR): 0.038 µM
- IC50 (E. coli TrxR; [2]): 2.1 µM
- IC50 (HEK 293T cells; [5]): 9.5 µM

SMILES: O=c1c2ccccc2[se]n1CCCCCCn1[se]c2ccccc2c1=O [EbSe 16]
- IC50 (E. coli TrxR; [2]): 2.25 µM
- Ki (E. coli TrxR; [3]): 0.025 µM
- Ki (E. coli TrxR; for the selenium released stock, read-out: Ki for E. coli TrxR, selenium released stock): 0.01 µM
- IC50 (HEK 293T cells; [6]): 9.2 µM
- MIC (Gor DHB4 E. coli): 35 µM (≈ 16.7 µg/mL)
- sensitivity of gshA^− / gor^− strains compared with wild type (gshA^− DHB4 E. coli): same sensitivity
- MIC (gshA^− DHB4 E. coli): 20 µM (≈ 9.57 µg/mL)
- MIC (wild type DHB4 E. coli): 20 µM (≈ 9.57 µg/mL)

SMILES: CCOC(=O)c1cccnc1[Se]Nc1ccc(Cl)cc1 [EbSe 22]
- IC50 (E. coli TrxR; [2]): > 10 µM
- Ki (E. coli TrxR; [3]): 7.5 µM

SMILES: CCOC(=O)c1cccnc1[Se]Nc1ccc(Cl)cn1 [compound 2]
- IC50 (E. coli TrxR; [2]): > 10 µM
- Ki (E. coli TrxR; [3]): 7.5 µM
- IC50 (HEK 293T cells; [6]): 60 µM
- MIC for Gor DHB4 E. coli (Gor DHB4 E. coli): No Inhibition
- MIC for gshA^− DHB4 E. coli (gshA^− DHB4 E. coli): No Inhibition
- MIC for wild type DHB4 E. coli (wild type DHB4 E. coli): No Inhibition

Source: patent US11013730B1, “Composition comprising selenazol or thiazalone derivatives and silver and method of treatment therewith” (Thioredoxin Systems AB, priority 2014, dated 2021)
